Laboratory results published in article PMC10394516, “The pharmacokinetic profile of brensocatib and its effect on pharmacodynamic biomarkers including NE, PR3, and CatG in various rodent species” (Frontiers in Pharmacology, 2023).
Like-named read-outs stand apart in the source and are kept apart here.

Test: Plasma PK of brensocatib, BID vs QD oral dosing, Sprague Dawley rats
Assay type: in vivo
Conditions: both sexes, rat; for AUC(0-t): first 24 h
Method: A dose frequency study was performed in male and female mice (C57BL/6 & BALB/c) and in male and female rats (Sprague Dawley & Wistar) investigating twice daily (BID) versus once daily (QD) brensocatib administration.
Briefly, animals were weighed and randomized into different treatment groups. In total, three different dosing levels of brensocatib were tested in each species and strain; each QD dosing level was equivalent to 1.5-times the matching daily BID dose. For BID dosing, the second daily dose was administered 8-h post the morning dose. C57BL/6 mice were dosed either BID or QD for 7 consecutive days at 0/0, 0.5/0.75, 2/3, and 20/30 mg/kg/day (BID/QD). BALB/c mice were dosed for 7 consecutive days at 0/0, 0.2/0.3, 2/3, and 20/30 mg/kg/day (BID/QD). SD rats were dosed for 9 consecutive days at 0/0, 0.2/0.3, 2/3, and 20/30 mg/kg/day (BID/QD). Wistar rats were dosed for 7 consecutive days at 0/0, 0.2/0.3, 2/3, and 20/30 mg/kg/day (BID/QD).
For sparse PK analysis via LC-MS/MS, plasma was collected from animals during the first 24 h of dosing at prescribed timepoints. The timepoints included 1, 3, 8, and 24 h post initial dose for QD groups, and 1, 3, 8, 9, 11, and 24 h post initial dose for BID groups. Note that the 8- and 24-h plasma samples were prior to the afternoon dose for BID groups and prior to the second day dose for all groups, respectively. See section Quantification of Plasma Brensocatib Concentrations for details.
Blood was collected via the tail-vein technique and centrifuged to separate and collect the plasma. The resulting plasma samples were stored at −20°C or lower until LC-MS/MS analysis.
The plasma concentration of brensocatib was quantified by liquid chromatography, tandem mass spectrometry (LC-MS/MS), a Sciex API6500 mass spectrometer (SCIEX, Framingham, MA). Two brensocatib stock solutions were prepared, one for the preparation of the 8-point standard (STD) curve spiking solutions and the other for the preparation of the quantitative control spiking solutions (QCs) at three levels. The STD curve and QCs were prepared by 2% spiking from the spiking solutions into mouse or rat plasma. The samples were extracted using a protein precipitation method, where 10 µL of sample was mixed with 100 µL of internal standard working solution (100 ng/mL ^6C13-brensocatib in methanol), vortexed for 5 s, and centrifuged at 21,130 × g at 4°C for 15 min. The supernatant was mixed with an equal volume of water and 10 μL was injected into a Phenomenex Kinetex Biphenyl column (3.0 mm × 50 mm; 2.6 μm; 65°C; 0.8 mL/min) with an elution gradient consisting of mobile phase A (10 mM ammonium formate) and mobile phase B (methanol) over 2 min from 5% to 95% B. The mass spectrometer was equipped with an atmospheric-pressure chemical ionization source operating in positive mode.
Individual plasma concentrations were plotted and the area under the curve (AUC) was calculated using the trapezoid method. The elimination rate constant (k e ) was calculated as the negative natural log of the plasma concentration over time (Eq. 1) starting at the max concentration (C max) after the most recent dose to the last measurable plasma concentration between doses. The calculated k e was used to define the half-life (t 1/2 ) based on Eq. 2; where 0.693 is the natural log of 2 and assumes a first-order reaction. ke=−ln∆C/∆t (1) t1/2=0.693/ke (2)

half-life (Sprague Dawley, Wistar, oral, rats (both strains), across BID and QD regimens, sparse PK, read-out: half-life (overall) (converted)): ~8 h | AUC(0-t) (Sprague-Dawley, SD rats, oral BID, 0.2 mg/kg/day, read-out: AUC0–24h): 124 ± 81 ng·h/mL | AUC(0-t) (Sprague-Dawley, SD rats, oral BID, 0.2 mg/kg/day, read-out: AUC(0–24)): 0.29 ± 0.19 µM·h | AUC(0-t) (Sprague-Dawley, SD rats, oral BID, 2 mg/kg/day, read-out: AUC0–24h): 4730 ± 421 ng·h/mL | AUC(0-t) (Sprague-Dawley, SD rats, oral BID, 2 mg/kg/day, read-out: AUC(0–24)): 11.2 ± 1 µM·h | AUC(0-t) (Sprague-Dawley, SD rats, oral BID, 20 mg/kg/day, read-out: AUC0–24h): 72600 ng·h/mL | AUC(0-t) (Sprague-Dawley, SD rats, oral BID, 20 mg/kg/day, read-out: AUC(0–24)): 173 ± 8.09 µM·h | AUC(0-t) (Sprague-Dawley, SD rats, oral QD, 0.3 mg/kg/day, read-out: AUC0–24h): 269 ± 128 ng·h/mL | AUC(0-t) (Sprague-Dawley, SD rats, oral QD, 0.3 mg/kg/day, read-out: AUC(0–24)): 0.64 ± 0.3 µM·h | AUC(0-t) (Sprague-Dawley, SD rats, oral QD, 3 mg/kg/day, read-out: AUC0–24h): 11100 ng·h/mL | AUC(0-t) (Sprague-Dawley, SD rats, oral QD, 3 mg/kg/day, read-out: AUC(0–24)): 26.39 ± 0.25 µM·h | AUC(0-t) (Sprague-Dawley, SD rats, oral QD, 30 mg/kg/day, read-out: AUC0–24h): 104000 ng·h/mL | AUC(0-t) (Sprague-Dawley, SD rats, oral QD, 30 mg/kg/day, read-out: AUC(0–24)): 248 ± 59.5 µM·h | half-life (Sprague-Dawley, po, 0.2 mg/kg/day, SD rats, oral BID, 0.2 mg/kg/day, evening dose, read-out: t1/2, PM dose (converted)): 0.55 ± 0.02 h | half-life (Sprague-Dawley, po, 0.3 mg/kg/day, SD rats, oral QD, 0.3 mg/kg/day, read-out: t1/2, AM dose (converted)): 5.36 ± 2.38 h | half-life (Sprague-Dawley, po, 2 mg/kg/day, SD rats, oral BID, 2 mg/kg/day, evening dose, read-out: t1/2, PM dose (converted)): 7.42 ± 1.16 h | half-life (Sprague-Dawley, po, 2 mg/kg/day, SD rats, oral BID, 2 mg/kg/day, morning dose, read-out: t1/2, AM dose (converted)): 13.5 ± 9.16 h | half-life (Sprague-Dawley, po, 3 mg/kg/day, SD rats, oral QD, 3 mg/kg/day, read-out: t1/2, AM dose (converted)): 4.46 ± 0.37 h | half-life (Sprague-Dawley, po, 20 mg/kg/day, SD rats, oral BID, 20 mg/kg/day, evening dose, read-out: t1/2, PM dose (converted)): 4.03 ± 0.44 h | half-life (Sprague-Dawley, po, 20 mg/kg/day, SD rats, oral BID, 20 mg/kg/day, morning dose, read-out: t1/2, AM dose (converted)): 14.1 ± 1.55 h | half-life (Sprague-Dawley, po, 30 mg/kg/day, SD rats, oral QD, 30 mg/kg/day, read-out: t1/2, AM dose (converted)): 3.88 ± 0.04 h
Compound: Cn1c(=O)oc2ccc(-c3ccc(C[C@@H](C#N)NC(=O)[C@@H]4CNCCCO4)cc3)cc21 [brensocatib]
